Holding throughout (format): cell-based
One test has as its system IL-1β. In words: PBMC assay, LPS-induced IL-1β (Meso Scale). Particulars: Homo sapiens, PBMCs, 100 ng/mL LPS 18-24 hrs; for inhibition at 0.1 µM: compound at 0.1 μM; for inhibition at 1 µM: compound at 1 μM; for inhibition at 10 µM: compound at 10 μM. The protocol: FIG. 1 represents the activity against IL-1-beta in peripheral blood mononuclear cells (PBMCs), plated in 96 well plates and pretreated with compound for 1 hour and then induced with 100 ng/mL LPS for 18-24 hrs. Cytokines in the media were measured according to MesoScale protocol. Negative control wells were treated with DMSO. Compound activity is measured as a percentage of LPS-induced activity.
(§1) Frozen primary blood mononuclear cells (PBMCs) were purchased from AllCells. Cells were quick thawed, washed once with RPMI-1640/10% FBS.
(§2) 1% Penicillin/1% Streptomycin and plated in 96 well plates at 200,000 cells per well. Cells were pretreated with DMSO only, or Compound 1 for 1 hour and then induced with 100 ng/mL lipopolysaccharide (LPS) for 18-24 hrs. The supernatant was analyzed for IL-1 beta, IL-6, and TNFα, using Meso Scale assay according to manufacturer's protocol. The negative control wells were treated with DMSO.
(§3) Compound activity was measured as fold difference from the DMSO control. IL-1β activity is shown in FIG. 1; IL-6 activity is shown in FIG. 2; TNFα activity is shown in FIG. 3; and IL-2 activity is shown in FIG. 4. Additional data for compounds (shown as percent inhibition) at 10 μM is shown in Table 1; at 1 μM in Table 2; and at 0.1 μM in Table 3.

The next test has as its system IL-6. In words: PBMC assay, LPS-induced IL-6 (Meso Scale). Particulars: Homo sapiens, PBMCs, 100 ng/mL LPS 18-24 hrs; for inhibition at 0.1 µM: compound at 0.1 μM; for inhibition at 1 µM: compound at 1 μM; for inhibition at 10 µM: compound at 10 μM. The protocol: FIG. 2 represents the activity against IL-6 in peripheral blood mononuclear cells (PBMCs), plated in 96 well plates and pretreated with compound for 1 hour and then induced with 100 ng/mL LPS for 18-24 hrs. Cytokines were measured according to MesoScale protocol. Negative control wells were treated with DMSO. Compound activity was measured as a percentage of LPS-induced activity.
as §1, §2, §3

For another test, the system named is TNFα. Briefly: PBMC assay, LPS-induced TNFα (Meso Scale). As to conditions: Homo sapiens, PBMCs, 100 ng/mL LPS 18-24 hrs; for inhibition at 0.1 µM: compound at 0.1 μM; for inhibition at 1 µM: compound at 1 μM; for inhibition at 10 µM: compound at 10 μM. As for the experimental part: FIG. 3 represents the activity against TNFα in peripheral blood mononuclear cells (PBMCs), plated in 96 well plates and pretreated with compound for 1 hour and then induced with 100 ng/mL LPS for 18-24 hrs. Cytokines in the media were measured according to MesoScale protocol. The negative control wells were treated with DMSO. Compound activity is measured as a percentage of LPS-induced activity.
as §1, §2, §3

For a further test, the system named is IL-2. Briefly: Anti-CD3-induced IL-2 secretion in PBMCs (Mesoscale). Particulars: Homo sapiens, PBMC, anti-CD3 stimulated PBMCs, 24 hr, vs DMSO control, read-out: IL-2 Fold Change; for fold induction at 0.1 µM: compound at 0.1 μM; for fold induction at 1 µM: compound at 1 μM; for fold induction at 10 µM: compound 10 μM. As for the experimental part:
FIG. 4 represents Anti-CD3-induced IL-2 secretion in PBMCs. 1 μg/mL anti-CD3 (OKT-3) antibody in PBS coated onto 96-well plates overnight at 4° C. Approximately, 550,000 PBMCs were added to each well, followed by addition of DMSO only (control) or Compound 1. Induction was measured after 24 hrs as fold difference from the DMSO stimulated control.
as §1
For the IL-2 analysis, 96 well plates were precoated with 1 μg/mL anti-human CD3 antibody (OKT3, eBioscience Inc.). After washing with PBS, Compound 1 was added (50 μL/well) followed by PBMCs diluted at 3-4 million cells/mL (150 μL/well). Plates were incubated for 24 hr and the supernatants collected for Mesoscale IL-2 analysis.
as §3

The next test deals with Molm-13 cells. In words: Cell viability assay (CellTiter-Glo), Molm-13 proliferation. Particulars: Homo sapiens, MOLM-13, 72 h, 3 days; for inhibition at 1 µM: compound at 1 μM; for inhibition at 10 µM: compound at 10 μM; for inhibition at 0.1 µM: compound at 0.1 μM. As for the experimental part:
(§4) Molm-13 and MV-4-11 cells were cultivated in RPMI-1640 (10% FBS/1% pen-strep) and were plated in white walled 96-well plates at 20,000 cells/well.
(§5) Cells were treated with compound at the indicated concentration or DMSO (control) and the cultures were incubated for 3 days at 37° C. and 5% CO2. Following the incubation period, 100 μL of CellTiterGlow (CTG) reagent (CellTiter-Glo® Luminescent Cell Viability Assay, Promega (Madison, Wis.)) was added to each well. Following a 10 min incubation with shaking, luminescence was measured using a Victor Wallac Luminometer.
Background: In ATP-based viability assays light output follows the ATP content of the culture.

Another test deals with MV-4-11 cells. In words: Cell viability assay (CellTiter-Glo), MV-4-11 proliferation. Particulars: Homo sapiens, MV4-11, 72 h, 3 days; for inhibition at 1 µM: compound at 1 μM; for inhibition at 10 µM: compound at 10 μM. As for the experimental part: as §4, §5

What is called inhibition is the relative decrease from the control value, in per cent.

`O=C1CCC[C@H](N2Cc3c(OCc4ccc(CN5CCOc6ccccc65)cc4)cccc3C2=O)C(=O)N1` [Compound 2, (S)-3-(4-((4-((2,3-dihydro-4H-benzo[b][1,4]oxazin-4-yl)methyl)benzyl)oxy)-1-oxoisoindolin-2-yl)azepane-2,7-dione]: the inhibition at 0.1 µM in the test on IL-1β stood at 72%; in the test on IL-6, 43%; with TNFα, 81%. Besides, the inhibition at 1 µM amounted to 86% in the test on IL-1β; 67% in the test with IL-6; 90% in the test with TNFα; 5% in the test on Molm-13 cells; 6% in the test with MV-4-11 cells. Further, the fold induction at 0.1 µM in the test on IL-2 was determined as 1.3. Also, the fold induction at 1 µM in the test with IL-2 came to 2.3. Besides, the inhibition at 10 µM in the test on Molm-13 cells was 30%; in the test with MV-4-11 cells, 16%.

Turning to `O=C1CCC[C@H](N2Cc3c(OCc4ccc(CN5CCOCC5)c(Cl)c4)cccc3C2=O)C(=O)N1` [Compound 3], the inhibition at 0.1 µM with IL-1β amounted to 91%; in the test on IL-6 it was 72%; with TNFα, 91%. The inhibition at 1 µM worked out at 93% with IL-1β; 79% with IL-6; 93% with TNFα; 1% in the test on Molm-13 cells; 0% with MV-4-11 cells. For the same compound, the inhibition at 10 µM is 93% in the test on IL-1β; 77% in the test with IL-6; 94% in the test with TNFα; 29% in the test on Molm-13 cells; 20% with MV-4-11 cells. Moreover, in the test on IL-2, the fold induction at 0.1 µM amounted to 2. Besides, the fold induction at 1 µM in the test with IL-2 is 0.7.

As to `NCc1ccc(COc2cccc3c2CN([C@H]2CCCC(=O)NC2=O)C3=O)cc1` [Compound 5, trifluoroacetic acid], the inhibition at 0.1 µM is 64% with IL-1β, 37% with IL-6 and 55% in the test with TNFα. Further, the fold induction at 0.1 µM with IL-2 is 1.2. In addition, the fold induction at 1 µM in the test on IL-2 came to 2.1. In addition, the figures for the inhibition at 10 µM in the test on Molm-13 cells and in the test on MV-4-11 cells were 40% and 3%, respectively. In addition, in the test with MV-4-11 cells, 1 µM produced 1% inhibition.

`Cc1cnc(Nc2ccc(OCCCNCC(=O)NCc3ccc(COc4cccc5c4CN([C@H]4CCCC(=O)NC4=O)C5=O)cc3)cc2)nc1Nc1cccc(S(=O)(=O)NC(C)(C)C)c1` [Compound 6]: the values for the inhibition at 0.1 µM in the test on IL-1β, in the test with IL-6 and in the test on TNFα were 68%, 42% and 62%, respectively. The inhibition at 1 µM in the test on IL-1β amounted to 92%; in the test on IL-6 it was 76%; in the test with TNFα, 83%; in the test on MV-4-11 cells, 0%. Also, the fold induction at 0.1 µM in the test on IL-2 worked out at 1. Also, the fold induction at 1 µM in the test on IL-2 worked out at 2.5. The inhibition at 10 µM stood at 91% in the test on Molm-13 cells and 76% with MV-4-11 cells.

In the case of `O=C1CCC[C@H](N2Cc3c(OCc4ccc(C(=O)N5CCOCC5)cc4)cccc3C2=O)C(=O)N1` [Compound 8, (S)-3-{4-[(p-Morpholinocarbonlphenyl)methoxy]-2-isoindolinoyl}-2,7-azepanedione], the figures for the inhibition at 0.1 µM in the test with IL-1β, in the test with IL-6 and in the test on TNFα were 73%, 56% and 63%, respectively. Besides, the fold induction at 0.1 µM with IL-2 came out at 1.8. Moreover, the fold induction at 1 µM with IL-2 was 2.3. For the same compound, the inhibition at 10 µM in the test on Molm-13 cells turned out to be 16%; in the test on MV-4-11 cells it was 0%. Moreover, the inhibition at 1 µM in the test on MV-4-11 cells is 0%.

`NCc1cccc(COc2cccc3c2CN([C@H]2CCCC(=O)NC2=O)C3=O)c1` [Compound 9, trifluoroacetic acid]: the inhibition at 0.1 µM in the test with IL-1β came to 74%; with IL-6 it was 51%; with TNFα, 62%. Besides, in the test with IL-2, the fold induction at 0.1 µM came out at 1.6. The fold induction at 1 µM in the test with IL-2 was determined as 1.6. Besides, the inhibition at 10 µM with Molm-13 cells was found to be 34%; in the test on MV-4-11 cells, 10%. In the test on MV-4-11 cells, the inhibition at 1 µM came out at 2%.

`O=C1CCC[C@H](N2Cc3c(OCc4cccc(CN5CCOCC5)c4)cccc3C2=O)C(=O)N1` [Compound 10]: the inhibition at 0.1 µM stood at 52% with IL-1β, 27% with IL-6 and 48% in the test on TNFα. Besides, the fold induction at 0.1 µM in the test with IL-2 was determined as 1.9. Also, in the test with IL-2, the fold induction at 1 µM is 2.1. Also, the inhibition at 10 µM in the test on Molm-13 cells amounted to 38%; in the test with MV-4-11 cells, 35%. Moreover, the inhibition at 1 µM with MV-4-11 cells was found to be 1%.

Consider `Cc1cnc(Nc2ccc(OCCCNC(=O)NCc3ccc(COc4cccc5c4CN([C@H]4CCCC(=O)NC4=O)C5=O)cc3)cc2)nc1Nc1cccc(S(=O)(=O)NC(C)(C)C)c1` [Compound 13], for which the inhibition at 1 µM turned out to be 51% in the test on IL-1β; 59% with IL-6; 84% in the test with TNFα; 29% with Molm-13 cells; 0% in the test with MV-4-11 cells. Besides, the fold induction at 10 µM in the test with IL-2 is 0.1. In addition, the fold induction at 1 µM in the test on IL-2 amounted to 0.3. The same compound gave an inhibition at 10 µM in the test on MV-4-11 cells of 50%.

As for `Cc1cnc(Nc2ccc(OCCCNC(=O)NCc3ccc(COc4cc(F)cc5c4CN([C@H]4CCC(=O)NC4=O)C5=O)cc3)cc2)nc1Nc1cccc(S(=O)(=O)NC(C)(C)C)c1` [Compound 18], the inhibition at 1 µM in the test with IL-1β stood at 80%; with IL-6, 49%; with TNFα it was 83%; in the test on MV-4-11 cells, 99%. Besides, the inhibition at 10 µM with IL-1β amounted to 83%; in the test on IL-6 it was 45%; in the test with TNFα, 89%; in the test with Molm-13 cells it was 99%; with MV-4-11 cells, 99%. Further, the fold induction at 10 µM in the test on IL-2 worked out at 3.3. The fold induction at 1 µM with IL-2 stood at 3.2.

Take `Cc1cnc(Nc2ccc(OCCCNC(=O)NCc3ccc(COc4cccc5c4CN([C@H]4CCC(=O)NC4=O)C5=O)cc3)cc2)nc1Nc1cccc(S(=O)(=O)NC(C)(C)C)c1` [Compound 20]: the inhibition at 0.1 µM in the test with IL-1β was 30%; in the test on IL-6, 1%; in the test on TNFα, 43%; in the test on Molm-13 cells, 93%. Moreover, the inhibition at 1 µM in the test with IL-1β came out at 43%; in the test on IL-6 it was 5%; in the test on TNFα, 57%; with Molm-13 cells, 99%; in the test on MV-4-11 cells it was 77%. In addition, the fold induction at 0.1 µM in the test on IL-2 was found to be 0.9. Besides, the fold induction at 1 µM with IL-2 was 1.4. For the same compound, the inhibition at 10 µM with MV-4-11 cells turned out to be 88%.

For `NCc1ccc2c(c1OCc1ccc(CN3CCOCC3)cc1)CN([C@H]1CCCC(=O)NC1=O)C2=O` [Compound 22, ditrifluoroacetic acid], the inhibition at 0.1 µM with IL-1β was 69%; with IL-6, 23%; in the test on TNFα it was 78%; in the test with Molm-13 cells, 31%. Besides, the inhibition at 1 µM turned out to be 74% with IL-1β; 27% with IL-6; 80% in the test with TNFα; 56% in the test with Molm-13 cells; 2% with MV-4-11 cells. Besides, the fold induction at 0.1 µM in the test on IL-2 was 2. In addition, the fold induction at 1 µM in the test with IL-2 stood at 2.4. Besides, the inhibition at 10 µM with MV-4-11 cells was 4%.
